From patent US20240247048A1 (EMORY UNIVERSITY, priority 2021, published 2024) come the findings set out here.

One assay deals with KPC-Luc tumors. In words: subcutaneous KPC / KPC-Luc pancreatic tumors in C57BL/6 mice. The format is in vivo, mouse. As for the experimental part:
Shown are scrambled peptide plus IgG, Ant308 plus anti-PD1, scrambled peptide plus anti-PD-1, Ant308 plus IgG, and Ant308 plus AMD3100. Tumor volume was measured with calipers. ‘Star’ (*) indicates mice euthanized either due to large tumor volume (>500 mm^3) or ulceration of the skin overlying the tumor.
This decease in tumor volume was more pronounced in combination with anti-PD1 treatment. We also examined the effect of ANT308 in combination with Iso IgG or anti-PD1 antibody had on tumor volume as measured as a percent change in volume (FIG. 8A) and in measured volume (FIG. 8B). […] Investigating this effect more completely, we observed that combination treatment with both anti-PD1 and VIP-R antagonist was able to slow tumor growth relative to control mice treated with scrambled peptide and iso-type matched IgG, with the combination showing a statistically significant improvement in the rate of tumor growth (FIG. 8D). […]
In vivo efficacy studies. […] In the KPC-Luc models, the tumor growth rate was plotted using the tumor flux measurements quantified using IVIS bioluminescent imaging. […] In experiments with subcutaneous tumors, Vernier calipers were used to measure the tumor dimensions and the tumor volume was calculated using the formula: tumor volume=½(length×width×height).

Assay [1] relates to wild type and VPAC2 KO Panc02 cells. In words: MTT viability of wild type and VPAC2 KO Panc02 cells. The format is cell-based, mouse. The following applies: 3 uM for 72 hours; FIG. 24f. The method, then:
(FIG. 24A) Percentage viability of murine (MT5, KPC.Luc, Panc02) and human (Capan02, BxPC3) PDAC cell lines cultured in the presence of different concentrations ranging from 0-5 μM of ANT008 for 72 hours is plotted. Confirmation of CRISPR-Cas9 KO of VIPR2 encoding VPAC2 receptor via (FIG. 24B) western blot; (FIG. 24C) RT-PCR using primers targeting exon 9-12 downstream of targeted site and (FIG. 24D) Sanger Sequencing showing the validation of in-del mutation in exon 2. In vitro MTT assay showing (FIG. 24E) Proliferation of WT and KO cells over 72 hours; (FIG. 24F) Percent viability of wild type (WT) and VPAC2 KO (KO) Panc02 cells treated with ANT008 and ANT308 at 3 μM for 72 hours. (FIG. 24G) Tumor growth curve of WT versus KO Panc02 cells in C57BL/6 mice following subcutaneous tumor implantation. Values represent median tumor volume±95% confidence interval. (FIG. 24H) Kaplan-Meier survival plots corresponding to results in FIG. 24G. Median survival time for WT is 21 days and 28 days for VPAC2 KO. Error bars represent mean and standard deviation. *p<0.05, **p<0.01.
Cell viability assay. […] Cell viability was assessed using cell proliferation kit I from Roche (Basel, Switzerland), following the manufacturer's instructions. […] This was followed by incubation with solubilization buffer overnight and reading the absorbance at 570 nm. […]

As to KPRRPYTSDYTRLRKQMAVKKYLNLILN [ANT308], the “growth of tumors compared with control mice (scrambled peptide and isotype-matched IgG)” value with KPC-Luc tumors (FIG. 9) was “not statistically different”. Also, the tumor volume entry in the assay on KPC-Luc tumors (day 22, 3 days after a 10-day course, FIG. 7) was “reduced tumor volume”. For the same sequence, the “in vitro growth of VPAC2 knockout or wild-type Panc02 cells” value in assay [1] is “did not inhibit”.
